Data published in the NIST ThermoML archive (doi:10.1016/j.jct.2016.01.017).
Numbers after ± are expanded uncertainties.

Experiment: activity coefficient (dimensionless); of the first substance listed, at infinite dilution; xn = mol fraction of the nth substance listed
Details: 100 kPa, Liquid, Chromatography, x1 = 0

SMILES	activity coefficient (308.15 K)	activity coefficient (318.15 K)	activity coefficient (328.15 K)	activity coefficient (338.15 K)	activity coefficient (348.15 K)	activity coefficient (358.15 K)	activity coefficient (368.15 K)
Cc1ccccc1C [1,2-dimethylbenzene] + CCCC[n+]1ccc(C#N)cc1.O=S(=O)([N-]S(=O)(=O)C(F)(F)F)C(F)(F)F	1.79 ± 0.15	1.89 ± 0.16	2 ± 0.17	2.1 ± 0.18	2.21 ± 0.19	2.3 ± 0.2	2.39 ± 0.21
Cc1cccc(C)c1 [1,3-dimethylbenzene] + CCCC[n+]1ccc(C#N)cc1.O=S(=O)([N-]S(=O)(=O)C(F)(F)F)C(F)(F)F	2.13 ± 0.18	2.25 ± 0.19	2.37 ± 0.2	2.49 ± 0.21	2.6 ± 0.22	2.71 ± 0.23	2.83 ± 0.24
Cc1ccc(C)cc1 [1,4-dimethylbenzene] + CCCC[n+]1ccc(C#N)cc1.O=S(=O)([N-]S(=O)(=O)C(F)(F)F)C(F)(F)F	2.15 ± 0.19	2.28 ± 0.2	2.4 ± 0.21	2.52 ± 0.22	2.65 ± 0.23	2.77 ± 0.24	2.89 ± 0.25
C1COCCO1 [1,4-dioxane] + CCCC[n+]1ccc(C#N)cc1.O=S(=O)([N-]S(=O)(=O)C(F)(F)F)C(F)(F)F	0.419 ± 0.041	0.461 ± 0.044	0.502 ± 0.046	0.544 ± 0.049	0.587 ± 0.052	0.631 ± 0.055	0.676 ± 0.058
C=CCCCCCCCC [1-decene] + CCCC[n+]1ccc(C#N)cc1.O=S(=O)([N-]S(=O)(=O)C(F)(F)F)C(F)(F)F	59.4 ± 5.1	57.3 ± 5	55.2 ± 4.8	53.5 ± 4.6	51.8 ± 4.5	50.4 ± 4.4	49 ± 4.2
C=CCCCCC [1-heptene] + CCCC[n+]1ccc(C#N)cc1.O=S(=O)([N-]S(=O)(=O)C(F)(F)F)C(F)(F)F	21.3 ± 1.8	20.7 ± 1.8	20 ± 1.7	19.5 ± 1.7	19 ± 1.6	18.5 ± 1.6	18.1 ± 1.6
C#CCCCCC [1-heptyne] + CCCC[n+]1ccc(C#N)cc1.O=S(=O)([N-]S(=O)(=O)C(F)(F)F)C(F)(F)F	6.92 ± 0.6	7.02 ± 0.61	7.11 ± 0.61	7.21 ± 0.62	7.3 ± 0.63	7.39 ± 0.64	7.48 ± 0.65
C#CCCCC [1-hexyne] + CCCC[n+]1ccc(C#N)cc1.O=S(=O)([N-]S(=O)(=O)C(F)(F)F)C(F)(F)F	4.81 ± 0.41	4.91 ± 0.42	5.01 ± 0.43	5.1 ± 0.44	5.19 ± 0.45	5.28 ± 0.46	5.36 ± 0.46
CCC[N+](=O)[O-] [1-nitropropane] + CCCC[n+]1ccc(C#N)cc1.O=S(=O)([N-]S(=O)(=O)C(F)(F)F)C(F)(F)F	0.74 ± 0.063	0.768 ± 0.065	0.796 ± 0.067	0.824 ± 0.069	0.851 ± 0.071	0.877 ± 0.073	0.904 ± 0.075
C#CCCCCCC [1-octyne] + CCCC[n+]1ccc(C#N)cc1.O=S(=O)([N-]S(=O)(=O)C(F)(F)F)C(F)(F)F	10.1 ± 0.9	10.2 ± 0.9	10.3 ± 0.9	10.3 ± 0.9	10.4 ± 0.9	10.4 ± 0.9	10.5 ± 0.9
C=CCCC [1-pentene] + CCCC[n+]1ccc(C#N)cc1.O=S(=O)([N-]S(=O)(=O)C(F)(F)F)C(F)(F)F	11.5 ± 1	10.9 ± 0.9	10.3 ± 0.9	9.83 ± 0.85	9.41 ± 0.81	9.02 ± 0.78	8.65 ± 0.75
C#CCCC [1-pentyne] + CCCC[n+]1ccc(C#N)cc1.O=S(=O)([N-]S(=O)(=O)C(F)(F)F)C(F)(F)F	3.4 ± 0.29	3.48 ± 0.3	3.56 ± 0.31	3.64 ± 0.31	3.7 ± 0.3	3.77 ± 0.33	3.84 ± 0.33
CC(C)CC(C)(C)C [2,2,4-trimethylpentane] + CCCC[n+]1ccc(C#N)cc1.O=S(=O)([N-]S(=O)(=O)C(F)(F)F)C(F)(F)F	46.5 ± 4	42.9 ± 3.7	39.8 ± 3.4	37 ± 3.2	34.7 ± 3	32.5 ± 2.8	30.7 ± 2.7
CCC(C)(C)C [2,2-dimethylbutane] + CCCC[n+]1ccc(C#N)cc1.O=S(=O)([N-]S(=O)(=O)C(F)(F)F)C(F)(F)F	34.9 ± 3	31.3 ± 2.7	28.2 ± 2.4	25.6 ± 2.2	23.4 ± 2	21.4 ± 1.9	19.7 ± 1.7
